# Like-named read-outs stand apart in the source and are kept apart here.
# Tests used:
# [1] = Antifibrillatory effect in mice: protection against chloroform-induced ventricular fibrillation, oral (Table I); type: in vivo, female Swiss albino mice (HAM/ICR)
# Procedure: (§1) The experiments on mice were performed according to a modification of the method described by J. W. Lawson, "Antiarrhythmic activity of some isoquinoline derivatives determined by a rapid screening procedure in the mouse," J. Pharm. Exp. Therap. Vol. 160, pp. 22-31 (1968). This method is based upon the observation that when an unanesthetized, untreated mouse is exposed to chloroform vapor its respiration soon ceases and at that time both electrocardiographic and visual inspection reveal that the cardiac ventricles are fibrillating. If the mouse is treated appropriately with known antiarrhythmic agents prior to exposure to chloroform, the respiratory failure is not accompanied by ventricular fibrillation.
# [2] = mouse, in vivo
# [3] = Relative potency against chloroform induced fibrillation in mice, subcutaneous (Table IV); type: in vivo; settings: 20 min, statistical mean (confidence limits)
# Procedure: as §1
# The procedure used was a modification of the method previously described. The modification involved using a standard time of 20 minutes for each test run and four different doses of the same drug. Route of administration was subcutaneous.
# [4] = system: frog sciatic nerve; test: In vitro local anesthetic effect on frog sciatic nerve; settings: 20 mM solution, after exposure for 96 min
# [5] = type: in vivo, dogs; settings: for Overt toxicity: convulsions, onset / Overt toxicity: emesis / Overt toxicity: nystagmus / Overt toxicity: other / Overt toxicity: tremors / Overt toxicity: convulsions, duration: po
# Excerpt: (§2) Vol. 1, pp. 1318-1328 (1950). […] The electrocardiographic, cardiovascular and other drug effects were monitored.
# [6] = system: mice; test: Ataxia in mice just before CHCl3 challenge, oral (Table I); type: in vivo; settings: LD0.1 dose
# Excerpt: Immediately after cessation of respiration each mouse was removed from the beaker, its thorax was opened and its heart was examined for the presence of absence of ventricular fibrillation. The nature of the cardiac rhythm was then confirmed by electrocardiographic recordings. Whenever fibrillation was not evident, the heart was touched with forceps. The heart was considered as fibrillating if fine tremulous movements were present on the surface of the ventricle and persisted for at least 5 seconds after the thoracotomy or the mechanical stimulus. Ventricular fibrillation was considered absent in those animals in which coordinated ventricular activity was evident following such procedures.
# [7] = Expected antiarrhythmic oral dosage in humans; type: in vivo
# [8] = Response of unanesthetized dogs to intravenous infusion on first day after coronary artery ligation (Table III)
# Procedure: In this method the dogs were anesthetized, the heart was exposed, and the anterior descending branch of the left coronary artery was ligated in two stages. The thorax was closed and the dog was allowed to recover from the anesthesia. […] The electrocardiographic, cardiovascular and other drug effects were monitored.
# The dosage schedule was: 1st hr.: 15 mg/kg/hr; 2nd hr.: 30 mg/kg/hr; 3rd hr.: 60 mg/kg/hr. Infusions were stopped at the first sign of toxicity other than emesis.
# [9] = Ventricular arrhythmias in unanesthetized dogs after coronary artery ligation (modified Harris method), 3-amino-2',6'-butyroxylidide (Table VI); type: in vivo
# Excerpt: as §2
# The electrocardiographic, cardiovascular and other drug effects were monitored.
# [10] = cited from earlier work
# [11] = oral and intravenous doses, unanesthetized dogs
# [12] = i.v. infusion, cumulative, one value per dog
# [13] = intravenous, first day after ligation
structure (smiles),measurement,setting,value
"Cc1cccc(C)c1NC(=O)C(C)N (racemic) [2-amino-2',6'-propionoxylidide]",Proportion of mice in each group protected against fibrillation at LD0.1,[1]; 20 min before CHCl3 challenge,9/10
same,Proportion of mice in each group protected against fibrillation at LD0.1,[1]; 40 min before CHCl3 challenge,9/10
same,Proportion of mice in each group protected against fibrillation at LD0.1,[1]; 80 min before CHCl3 challenge,10/10
same,Proportion of mice in each group protected against fibrillation at LD0.1,[1]; 160 min before CHCl3 challenge,9/10
same,convulsions incidence,[2]; 251 mg/kg,34%
same,Relative potency (ED50 test compound/ED50 lidocaine),[3],0.33 (0.20-0.54)
same,block of the action potential of the nerve,[4],does not block the action potential at all
same,adverse reactions,"[5]; dog, in vivo",unaccompanied by any discernible adverse reactions
same,"Overt toxicity: convulsions, onset","[5]; dog, in vivo, 50 mg/kg",None
same,Overt toxicity: emesis,"[5]; dog, in vivo, 50 mg/kg",None
same,Overt toxicity: nystagmus,"[5]; dog, in vivo, 50 mg/kg",None
same,Overt toxicity: other,"[5]; dog, in vivo, 50 mg/kg",None
same,Overt toxicity: tremors,"[5]; dog, in vivo, 50 mg/kg",None
same,"Overt toxicity: convulsions, onset","[5]; dog, in vivo, 100 mg/kg",None
same,Overt toxicity: emesis,"[5]; dog, in vivo, 100 mg/kg",None
same,Overt toxicity: nystagmus,"[5]; dog, in vivo, 100 mg/kg",None
same,Overt toxicity: other,"[5]; dog, in vivo, 100 mg/kg",None
same,Overt toxicity: tremors,"[5]; dog, in vivo, 100 mg/kg",None
same,"Overt toxicity: convulsions, onset","[5]; dog, in vivo, 150 mg/kg",None
same,Overt toxicity: nystagmus,"[5]; dog, in vivo, 150 mg/kg",None
same,Overt toxicity: other,"[5]; dog, in vivo, 150 mg/kg",None
same,Overt toxicity: tremors,"[5]; dog, in vivo, 150 mg/kg",None
same,"Overt toxicity: convulsions, duration","[5]; dog, in vivo, 200 mg/kg",> 3 min
same,Overt toxicity: nystagmus,"[5]; dog, in vivo, 200 mg/kg",None
same,Overt toxicity: other,"[5]; dog, in vivo, 200 mg/kg",None
same,"Overt toxicity: convulsions, duration","[5]; dog, in vivo, 300 mg/kg",17 min
same,"Overt toxicity: convulsions, onset","[5]; dog, in vivo, 300 mg/kg",None
same,Overt toxicity: emesis,"[5]; dog, in vivo, 300 mg/kg",None
same,Overt toxicity: nystagmus,"[5]; dog, in vivo, 300 mg/kg",None
same,Overt toxicity: other,"[5]; dog, in vivo, 300 mg/kg",None
same,Overt toxicity: tremors,"[5]; dog, in vivo, 300 mg/kg",None
same,suppression of the ventricular arrhythmias,[5]; [11],distinct suppression of the ventricular arrhythmias
same,"Maximum antiarrhythmic activity, partial clearing, onset","[5]; oral, cumul. dose 50 mg/kg as HCl, 50-95% reduction of abnormal ventricular beats",None
same,Proportion of mice in each group having ataxia just before CHCl3 challenge,[6]; 20 min,10/10
same,Proportion of mice in each group having ataxia just before CHCl3 challenge,[6]; 40 min,10/10
same,Proportion of mice in each group having ataxia just before CHCl3 challenge,[6]; 80 min,8/10
same,Proportion of mice in each group having ataxia just before CHCl3 challenge,[6]; 160 min,5/10
same,dosage that should be effective for humans,[7],about 6 grams/day
same,Toxic doses (cumul.),[8]; [12],81 mg/kg
"Cc1cccc(C)c1NC(=O)CC(C)N (centres unmarked) [3-amino-2',6'-butyroxylidide]",Relative potency (ED50 test compound/ED50 lidocaine),[3],0.99 (0.60-1.9)
same,adverse reactions,"[9]; dog, in vivo",unaccompanied by any discernible adverse reactions
same,Toxicity: convulsions,[9]; [13],None
same,Toxicity: deaths,[9]; [13],None
same,suppression of the ventricular arrhythmias,[9]; [11],distinct suppression of the ventricular arrhythmias
CCN(CC)CCNC(=O)c1ccc(N)cc1 [PROCAINAMIDE],Proportion of mice in each group protected against fibrillation at LD0.1,[1]; 5 min before CHCl3 challenge,0/10
same,Proportion of mice in each group protected against fibrillation at LD0.1,[1]; 10 min before CHCl3 challenge,1/10
same,Proportion of mice in each group protected against fibrillation at LD0.1,[1]; 20 min before CHCl3 challenge,0/10
same,Proportion of mice in each group having ataxia just before CHCl3 challenge,[6]; 5 min,0/10
same,Proportion of mice in each group having ataxia just before CHCl3 challenge,[6]; 10 min,0/10
same,Proportion of mice in each group having ataxia just before CHCl3 challenge,[6]; 20 min,0/10
C=C[C@H]1C[N@@]2CC[C@H]1C[C@@H]2[C@@H](O)c1ccnc2ccc(OC)cc12 [QUINIDINE],Proportion of mice in each group protected against fibrillation at LD0.1,[1]; 20 min before CHCl3 challenge,10/10
same,Proportion of mice in each group protected against fibrillation at LD0.1,[1]; 40 min before CHCl3 challenge,9/9
same,Proportion of mice in each group protected against fibrillation at LD0.1,[1]; 80 min before CHCl3 challenge,9/9
same,Proportion of mice in each group having ataxia just before CHCl3 challenge,[6]; 20 min,0/10
same,Proportion of mice in each group having ataxia just before CHCl3 challenge,[6]; 40 min,2/10
same,death,[6]; 40 min group,1 death
same,death,[6]; 80 min group,1 death
"CCN(CC)CC(=O)Nc1c(C)cccc1C [lidocaine, 2-diethylamino-2',6'-acetoxylidide]",Proportion of mice in each group protected against fibrillation at LD0.1,[1]; 10 min before CHCl3 challenge,9/10
same,Proportion of mice in each group protected against fibrillation at LD0.1,[1]; 20 min before CHCl3 challenge,10/10
same,Proportion of mice in each group protected against fibrillation at LD0.1,[1]; 40 min before CHCl3 challenge,7/10
same,Proportion of mice in each group protected against fibrillation at LD0.1,[1]; 80 min before CHCl3 challenge,0/10
same,duration of blood levels,[10]; lidocaine,fairly short
same,oral effectiveness,"[10]; oral, due to low levels of the drug in the blood",not orally effective
same,loss of the drug after oral administration,"[10]; oral, probably due to the functions of the liver",pronounced loss of the drug
same,Proportion of mice in each group having ataxia just before CHCl3 challenge,[6]; 10 min,0/10
same,Proportion of mice in each group having ataxia just before CHCl3 challenge,[6]; 20 min,9/10
same,Proportion of mice in each group having ataxia just before CHCl3 challenge,[6]; 40 min,0/10
same,Proportion of mice in each group having ataxia just before CHCl3 challenge,[6]; 80 min,0/10
same,minimal effective dose,"[8]; Canis lupus familiaris, iv, read-out: Antiarrhythmic doses (cumul.), i.v. infusion, cumulative, one value per dog",36 mg/kg
same,Antiarrhythmic doses (cumul.),[8]; [12],55 mg/kg
same,Number of dogs showing antiarrhythmic effect,"[8]; i.v. infusion, dogs tested: lidocaine 2, 2-amino-2',6'-propionoxylidide 1, abnormal beats < 5% of total",2
same,Duration of antiarrhythmic effect,"[8]; i.v. infusion, return of 50% of suppressed abnormal ventricular beats, one value per dog",5 min
CCNC(C)C(=O)Nc1c(C)cc(C)cc1C (centres unmarked) [secondary amine],ataxia incidence,[2],100%
same,convulsions incidence,[2],90%
